From US8278072B1, “Method for synthesis of sialylated products using reversible sialylation” (Health Research, Inc., priority 2007, dated 2012)

Target: T1, ST3Gal-II (Rattus norvegicus, UniProt Q11205)
T1 construct: purchased Calbiochem
T1 sequence (Q11205 1-350): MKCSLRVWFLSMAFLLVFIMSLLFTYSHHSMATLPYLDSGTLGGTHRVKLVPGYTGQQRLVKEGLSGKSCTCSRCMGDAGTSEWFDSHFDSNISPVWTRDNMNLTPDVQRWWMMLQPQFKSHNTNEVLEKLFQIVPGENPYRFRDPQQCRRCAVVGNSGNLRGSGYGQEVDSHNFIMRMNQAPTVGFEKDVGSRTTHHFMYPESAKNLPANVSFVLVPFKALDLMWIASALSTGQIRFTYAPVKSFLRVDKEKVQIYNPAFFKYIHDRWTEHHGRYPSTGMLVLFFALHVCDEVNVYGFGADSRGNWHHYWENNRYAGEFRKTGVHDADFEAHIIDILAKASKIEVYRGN
Test: Reverse sialylation equilibrium constant (Keq) and 5′-CMP dose dependence
Type: biochemical
Conditions: donor 0.15 mM [2], 0.15 mU ST3Gal-II, 2 hours; read-out: concentration of 5′-CMP that mediated half-maximal transfer of [9-3H]NeuAc
Procedure: FIG. 2. Equilibrium constant. a. Reversible sialyltransferase activity at increasing concentration of 5′-CMP. 0.15 mM of donor [9-^3H]NeuAcα2,3Galβ1,3(4-FGlcNAcβ1,6)GalNAcα-O-Bn [9-^3H[2]] was incubated with varying concentrations of 5′-CMP and 0.15 mU ST3Gal-II under conditions described in FIG. 1 for 2 hours. The consumption of the [9-^3H]NeuAc benzyl glycoside donor was measured by subjecting the incubation mixture to Sep-Pak C18 fractionation, which binds the donor and not CMP-[9-^3H]NeuAc. The reaction proceeded to ½ the maximum extent at 80 μM 5′-CMP. b. Equilibrium constant Keq (=0.35) calculated for data in panel a. c. Varying concentrations of 5′-CMP was sialylated with ST3Gal-II (2.0 mU) using either 0.15 mM (panel c) or 1.5 mM (not shown) sialyl donor [9-^3H]NeuAcα2,3Galβ1,3GalNAcβ1,3Galα-O-Me [9-^3H[3]] for 4 hours. The product CMP-[9-^3H]NeuAc and the unused [9-^3H[3]] were separated and quantitated by Dowex-1-Formate method. d. Equilibrium constant, Keq=98.9. Diamonds denote data from 1.5 mM runs while data from 0.15 mM runs are depicted by squares.
a) Biogel P2 chromatography: A Biogel P2 column (Fine Mesh; 1.0×116.0 cm) was used with 0.1 M pyridine acetate (pH5.4) as the eluent at room temperature. […] Fractions of 1.0 ml were collected. The bound material was then eluted with 0.5M GlcNAc or 0.2M Gal in the same buffer. […] Calculation of equilibrium constant, Keq: Equilibrium constant was calculated for selected reversible bimolecular reactions that are denoted by:
[formula] Here, [9-^3H]D* denotes the radiolabeled donor and D′ is the donor after removal of sialic acid. Similarly, A and [9-^3H]A* denote the acceptor before and after incorporation of NeuAc. In each run, unreacted [9-^3H]D* and product [9-^3H] A* are measured using radioactivity measurements. The equilibrium constant (Keq=kreverse/kforward, dimensionless units) are then determined using the following equation, where terms in square brackets denote concentrations:
[formula] [D0] and [A0] are initial donor and acceptor concentrations. A plot of [D*]/([D0]−[D*]) versus [A*]/([A0]−[A*]) yields Keq from slope data. Keq<1 implies that the forward reaction is favored and the reaction proceeds to the right side to form [9-^3H]A* efficiently. Liquid Chromatography Coupled with Tandem Mass Spectrometry (LC/MS/MS)
Similar results were observed upon increasing concentrations of 5′-CMP when [9-^3H]NeuAcα2,3Galβ1,3(4-FGlcNAcβ1,6) GalNAcα-O-Bn [9-^3H[2]] was donor (FIG. 2a, b). The concentration of 5′-CMP that mediated half-maximal transfer of [9-^3H]NeuAc was 80 μM. The bimolecular equilibrium constant (Keq) for this reaction was 0.35 (dimensionless units, Table I). Indeed, the Keq varied depending on the donor and it was 98.9 when the donor was based on the globo glycolipid, [9-^3H]NeuAcα2,3Galβ1,3GalNAcβ1,3 Gala-O-Me [[9-^3H] [3]] (FIG. 2c, d). Upon comparing and [3], it is apparent that reverse sialylation proceeds more effectively in the case of [2]. To further confirm the above estimates of Keq for core-2 based structures, we also calculated this parameter for our previously published data where [9-^3H]CMP-NeuAc was donor and mucin core-2 tetrasaccharide Galβ1,4GlcNAcβ1,6(Galβ1,3)GalNAcα-O-Bn was acceptor. In this case, Keq measured with respect to the rate of mucin core-2 sialylation was 5.55 (data not shown), which translates to a reverse sialylation Keq of 0.18.

## Nc1ccn([C@@H]2O[C@H](COP(=O)(O)O)[C@@H](O)[C@H]2O)c(=O)n1 [5′-CMP, Cytidine 5′-monophosphate]
  EC50: 80 µM
